Measured values: patent US8247211B2, “Glycopeptide antibiotics” (American Cyanamid Company, priority 2001, dated 2012)

What was measured:
Enterococcus sp. = assay: In vitro antibacterial evaluation: minimum inhibitory concentration (MIC), broth dilution method; type: cell-based; settings: broth dilution, 5×10^5 CFU/mL, 18 hours at 35° C.
Method in brief: (§1)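 Inoculum: 5×10^5 CFU/mL. Range: 64-0.06 μg/mL. Medium: Muller-Hinton II […]; NCCLS M7-A2 broth dilution. Endpoint: lowest concentration inhibiting growth. Strains include methicillin-, penicillin- and/or vancomycin-resistant clinical isolates.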

Staphylococcus sp. = assay: as above; type: cell-based; settings: for MIC Staphylococcus aureus (ATCC 29213): strain ATCC 29213; for MIC Staphylococcus aureus (GC 1131): strain GC 1131; for MIC Staphylococcus aureus (GC 3051): strain GC 3051; for MIC Staphylococcus aureus (GC 3053): strain GC 3053; for MIC Staphylococcus aureus (GC 4541): strain GC 4541; for MIC Staphylococcus aureus (GC 4542): strain GC 4542; for MIC Staphylococcus aureus (GC 4544): strain GC 4544; for MIC Staphylococcus aureus (GC 4545): strain GC 4545
Method in brief: as §1

Streptococcus sp. = assay: as above; type: cell-based; settings: broth dilution, 5×10^5 CFU/mL, 18 hours at 35° C.
Method in brief: as §1

Escherichia coli = assay: as above; type: cell-based; settings: 5×10^5 CFU/mL, 18 hours at 35° C.
Method in brief: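 NCCLS M7-A2 broth dilution with Mueller-Hinton II, testing 64-0.06 μg/mL antibiotic against 5×10^5 CFU/mL inocula. Test strains include recent methicillin-, penicillin- or vancomycin-resistant clinical isolates. MIC is the lowest concentration preventing growth.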

[1] = tested on: Enterococcus faecalis (GC 6189), vancomycin resistant strain; assay: Acute lethal infection in mice (ED50); type: in vivo; settings: female CD-1 mice, intraperitoneal challenge, intravenous dose 30 min. after infection, 7 day survival ratios
Method in brief: (§2)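 Median effective dose is calculated from 7-day survival ratios pooled across three separate tests. Mice (female CD-1) receive an intraperitoneal bacterial challenge in broth or hog gastric mucin, then intravenous drug 30 min later, five animals per dose level.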

[2] = tested on: Staphylococcus aureus-SMITH (GC 4543); assay: Acute lethal infection in mice (ED50); type: in vivo; settings: female CD-1 mice, intraperitoneal challenge, intravenous dose 30 min. after infection, 7 day survival ratios
Method in brief: as §2

[3] = broth dilution, 18 hours at 35° C.
[4] = strain GC 4543, broth dilution, 18 hours at 35° C.
[5] = strain GC 4546, broth dilution, 18 hours at 35° C.
[6] = strain GC 4547, broth dilution, 18 hours at 35° C.
[7] = strain GC 4548, broth dilution, 18 hours at 35° C.
[8] = strain GC 4549, broth dilution, 18 hours at 35° C.
[9] = strain GC 4551, broth dilution, 18 hours at 35° C.
[10] = strain GC 6257, broth dilution, 18 hours at 35° C.
[11] = broth dilution, 5×10^5 CFU/mL, 18 hours at 35° C.

CCC(CC)C1OCC2OC(OC3C(CO)OC(Oc4ccc(CC5NC(=O)C(C(C)c6ccccc6)NC(=O)CNC(=O)C(CO)NC(=O)C(C(O)C6CNC(=N)N6C6OC(CO)C(O)C(O)C6O)NC(=O)C(C(O)C6CNC(=N)N6)NC5=O)cc4)C(O)C3O)C(O)C(O)C2O1 (stereo not drawn) [Example 116, Cyclo[glycyl-β-methylphenylalanyl-O-[4-O-[4,6-O-(2-ethylbutylidene)hexopyranosyl]-hexopyranosyl]tyrosyl-3-(2-iminoimidazolidin-4-yl)seryl-3-(3-hexopyranosyl-2-iminoimidazolidin-4-yl)serylseryl]]
0.5 µg/mL: MIC Staphylococcus aureus (GC 4542) (Staphylococcus sp.) | MIC Staphylococcus aureus (GC 4542) (Staphylococcus sp.; [3]) | MIC Staphylococcus haemolyticus (GC 4546) (Staphylococcus sp.; strain GC 4546) | MIC Staphylococcus haemolyticus (GC 4546) (Staphylococcus sp.; [5]) | MIC Coagulase Negative Staphylococcus (GC 6257) (Staphylococcus sp.; strain GC 6257) | MIC Coagulase Negative Staphylococcus (GC 6257) (Staphylococcus sp.; [10])
0.25 µg/mL: MIC Streptococcus agalactiae (GC 4564) (Streptococcus sp.) | MIC Streptococcus pyogenes (GC 4563) (Streptococcus sp.)
0.46 mg/kg: median effective dose (ED50), Enterococcus faecalis (GC 6189) [1]
2 µg/mL: MIC Enterococccus avium (GC 4558) (Enterococcus sp.) | MIC Enterococccus faecalis (ATCC 29212) (Enterococcus sp.) | MIC Enterococccus faecalis (GC 2691) (Enterococcus sp.) | MIC Enterococccus faecalis (GC 3059) (Enterococcus sp.) | MIC Enterococccus faecalis (GC 4552) (Enterococcus sp.) | MIC Enterococccus faecalis (GC 4553) (Enterococcus sp.) | MIC Enterococccus faecalis (GC 4554) (Enterococcus sp.) | MIC Enterococccus faecalis (GC 6189) (Enterococcus sp.) | MIC Enterococccus faecium (GC 2243) (Enterococcus sp.) | MIC Enterococccus faecium (GC 4556) (Enterococcus sp.) | MIC Enterococccus faecium (GC 4557) (Enterococcus sp.) | MIC Enterococcus faecalis (GC 2242) (Enterococcus sp.)
32 µg/mL: MIC Escherichia coli (ATCC 25922) (Escherichia coli)
64 µg/mL: MIC Escherichia coli (GC 4559) (Escherichia coli)
1 µg/mL: MIC Staphylococcus aureus (ATCC 29213) (Staphylococcus sp.) | MIC Staphylococcus aureus (ATCC 29213) (Staphylococcus sp.; [3]) | MIC Staphylococcus aureus (GC 1131) (Staphylococcus sp.) | MIC Staphylococcus aureus (GC 1131) (Staphylococcus sp.; [3]) | MIC Staphylococcus aureus (GC 3051) (Staphylococcus sp.) | MIC Staphylococcus aureus (GC 3051) (Staphylococcus sp.; [3]) | MIC Staphylococcus aureus (GC 3053) (Staphylococcus sp.) | MIC Staphylococcus aureus (GC 3053) (Staphylococcus sp.; [3]) | MIC Staphylococcus aureus (GC 4541) (Staphylococcus sp.) | MIC Staphylococcus aureus (GC 4541) (Staphylococcus sp.; [3]) | MIC Staphylococcus aureus-SMITH (GC 4543) (Staphylococcus sp.; strain GC 4543, 18 hours at 35° C.) | MIC Staphylococcus aureus-SMITH (GC 4543) (Staphylococcus sp.; [4]) | MIC Staphylococcus aureus (GC 4544) (Staphylococcus sp.) | MIC Staphylococcus aureus (GC 4544) (Staphylococcus sp.; [3]) | MIC Staphylococcus aureus (GC 4545) (Staphylococcus sp.) | MIC Staphylococcus aureus (GC 4545) (Staphylococcus sp.; [3]) | MIC Coagulase Negative Staphylococcus (GC 4547) (Staphylococcus sp.; strain GC 4547) | MIC Coagulase Negative Staphylococcus (GC 4547) (Staphylococcus sp.; [6]) | MIC Coagulase Negative Staphylococcus (GC 4548) (Staphylococcus sp.; strain GC 4548) | MIC Coagulase Negative Staphylococcus (GC 4548) (Staphylococcus sp.; [7]) | MIC Coagulase Negative Staphylococcus (GC 4549) (Staphylococcus sp.; strain GC 4549) | MIC Coagulase Negative Staphylococcus (GC 4549) (Staphylococcus sp.; [8]) | MIC Coagulase Negative Staphylococcus (GC 4551) (Staphylococcus sp.; strain GC 4551) | MIC Coagulase Negative Staphylococcus (GC 4551) (Staphylococcus sp.; [9]) | MIC Escherichia coli (GC 4560) (Escherichia coli)
<0.06 µg/mL: MIC Streptococcus pneumoniae (GC 1894) (Streptococcus sp.) | MIC Streptococcus pneumoniae (GC 4565) (Streptococcus sp.) | MIC Streptococcus pneumonine (ATCC 6301) (Streptococcus sp.)

Cc1cccc(C2OCC3OC(OC4C(CO)OC(Oc5ccc(CC6NC(=O)C(C(C)c7ccccc7)NC(=O)CNC(=O)C(CO)NC(=O)C(C(O)C7CNC(=N)N7C7OC(CO)C(O)C(O)C7O)NC(=O)C(C(O)C7CNC(=N)N7)NC6=O)cc5)C(O)C4O)C(O)C(O)C3O2)c1 (stereo not drawn) [Example 135, Cyclo[glycyl-β-methylphenylalanyl-O-[4-O-[4,6-O-(3-methylbenzylidene)hexopyranosyl]-hexopyranosyl]tyrosyl-3-(2-iminoimidazolidin-4-yl)seryl-3-(3-hexopyranosyl-2-iminoimidazolidin-4-yl)serylseryl]]
0.5 µg/mL: MIC Coagulase Negative Staphylococcus (GC 4548) (Staphylococcus sp.; [11]) | MIC Coagulase Negative Staphylococcus (GC 4549) (Staphylococcus sp.; [11]) | MIC Coagulase Negative Staphylococcus (GC 6257) (Staphylococcus sp.; [11]) | MIC Staphylococcus haemolyticus (GC 4546) (Staphylococcus sp.; [11]) | MIC Staphylococcus haemolyticus (GC 4546) (Staphylococcus sp.; [5]) | MIC Coagulase Negative Staphylococcus (GC 4548) (Staphylococcus sp.; [7]) | MIC Coagulase Negative Staphylococcus (GC 4549) (Staphylococcus sp.; [8]) | MIC Coagulase Negative Staphylococcus (GC 6257) (Staphylococcus sp.; [10]) | MIC Escherichia coli (GC 4560) (Escherichia coli)
2 µg/mL: MIC Enterococccus avium (GC 4558) (Enterococcus sp.) | MIC Enterococccus faecalis (ATCC 29212) (Enterococcus sp.) | MIC Enterococccus faecalis (GC 2691) (Enterococcus sp.) | MIC Enterococccus faecalis (GC 3059) (Enterococcus sp.) | MIC Enterococccus faecalis (GC 4552) (Enterococcus sp.) | MIC Enterococccus faecalis (GC 4553) (Enterococcus sp.) | MIC Enterococccus faecalis (GC 4554) (Enterococcus sp.) | MIC Enterococccus faecalis (GC 6189) (Enterococcus sp.) | MIC Enterococccus faecium (GC 2243) (Enterococcus sp.) | MIC Enterococccus faecium (GC 4556) (Enterococcus sp.) | MIC Enterococccus faecium (GC 4557) (Enterococcus sp.) | MIC Enterococcus faecalis (GC 2242) (Enterococcus sp.) | MIC Staphylococcus aureus (GC 4544) (Staphylococcus sp.) | MIC Staphylococcus aureus (GC 4544) (Staphylococcus sp.; [3])
0.07 mg/kg: median effective dose (ED50), Staphylococcus aureus-SMITH (GC 4543) [2]
32 µg/mL: MIC Escherichia coli (ATCC 25922) (Escherichia coli) | MIC Escherichia coli (GC 4559) (Escherichia coli)
0.25 µg/mL: MIC Streptococcus agalactiae (GC 4564) (Streptococcus sp.) | MIC Streptococcus pyogenes (GC 4563) (Streptococcus sp.)
1 µg/mL: MIC Coagulase Negative Staphylococcus (GC 4547) (Staphylococcus sp.; [11]) | MIC Coagulase Negative Staphylococcus (GC 4551) (Staphylococcus sp.; [11]) | MIC Staphylococcus aureus-SMITH (GC 4543) (Staphylococcus sp.; [11]) | MIC Staphylococcus aureus (ATCC 29213) (Staphylococcus sp.) | MIC Staphylococcus aureus (ATCC 29213) (Staphylococcus sp.; [3]) | MIC Staphylococcus aureus (GC 1131) (Staphylococcus sp.) | MIC Staphylococcus aureus (GC 1131) (Staphylococcus sp.; [3]) | MIC Staphylococcus aureus (GC 3051) (Staphylococcus sp.) | MIC Staphylococcus aureus (GC 3051) (Staphylococcus sp.; [3]) | MIC Staphylococcus aureus (GC 3053) (Staphylococcus sp.) | MIC Staphylococcus aureus (GC 3053) (Staphylococcus sp.; [3]) | MIC Staphylococcus aureus (GC 4541) (Staphylococcus sp.) | MIC Staphylococcus aureus (GC 4541) (Staphylococcus sp.; [3]) | MIC Staphylococcus aureus (GC 4542) (Staphylococcus sp.) | MIC Staphylococcus aureus (GC 4542) (Staphylococcus sp.; [3]) | MIC Staphylococcus aureus-SMITH (GC 4543) (Staphylococcus sp.; [4]) | MIC Staphylococcus aureus (GC 4545) (Staphylococcus sp.) | MIC Staphylococcus aureus (GC 4545) (Staphylococcus sp.; [3]) | MIC Coagulase Negative Staphylococcus (GC 4547) (Staphylococcus sp.; [6]) | MIC Coagulase Negative Staphylococcus (GC 4551) (Staphylococcus sp.; [9])
<0.06 µg/mL: MIC Streptococcus pneumoniae (GC 1894) (Streptococcus sp.) | MIC Streptococcus pneumoniae (GC 4565) (Streptococcus sp.) | MIC Streptococcus pneumonine (ATCC 6301) (Streptococcus sp.)
0.26 mg/kg: median effective dose (ED50), Enterococcus faecalis (GC 6189) [1]
